Measured values from patent US8575203B2, “Chemical compounds” (Boehringer Ingelheim International GmbH, priority 2010, dated 2013).

target: Recombinant human PDK1 enzyme (aa 52-556) (Homo sapiens (Human), UniProt O15530); assay: PDK1 kinase assay; type: biochemical; details: in vitro kinase assay, His6-PDK1 (aa 52-556), PDKtide, P33-ATP
Experimental: The activity of the compounds according to the invention on the kinase PDK1 which inhibits the signal transduction pathway is determined in an in vitro kinase assay with recombinantly prepared protein:
Recombinant human PDK1 enzyme (aa 52-556) linked at its N-terminal end to His6 is isolated from baculovirus-infected insect cells. Purified enzyme may be obtained for example from the University of Dundee, Scotland. The following components are combined in a well of a 96-well round-based dish (Greiner bio-one, No. 650101): • 15 μL of compound to be tested in varying concentrations (e.g. starting at 10 μM, and diluted in steps of 1:5) in APT buffer (50 mM Tris/Cl pH 7.5; 0.05% β-mercaptoethanol; 10 mM Mg-acetate; 0.0166% Tween 20; 3.33% DMSO) • 15 μL His6-PDK1 (aa 52-556) 3.33 ng/well) and PDKtide ([…]), synthesised by Pepceuticals Limited, Nottingham, United Kingdom; 25 μM final concentration); His6-PDK1 and PDKtide are together diluted accordingly in assay buffer (50 mM tris pH 7.5, 0.05% β-mercaptoethanol, 10 mM Mg-acetate); PDKtide is present in this mixture as an 83.3 μM solution. These 30 μl are routinely incubated for 30 min at RT. • 20 μL ATP solution (25 μM ATP with 1.0 μCi/well gamma-P33-ATP). The final concentration of Tween 20 is 0.005%.
The reaction is started by adding the ATP solution and the mixture is incubated for 90 min at RT. At the start of the reaction the dishes are shaken gently. The reaction is stopped by the addition of 50 μL/well of 500 mM phosphoric acid (H3PO4) and incubated for about 20 min at RT. The precipitate is transferred by harvesting onto filter plates (96-well microtitre filter plate: UniFilter GF/C; Perkin Elmer; No. 6005174), then washed 6 times with 50 mM H3PO4 and dried at 60° C. Then the plate is stuck down with sealing tape, 25 μL/well of scintillation solution (Microscint 0; Perkin Elmer; No. 6013611) are added and the amount of P33 precipitated is measured using the Wallac Betacounter. The measured data are evaluated using Graphpad Prism software.

Chain of Recombinant human PDK1 enzyme (aa 52-556) (O15530 52-556): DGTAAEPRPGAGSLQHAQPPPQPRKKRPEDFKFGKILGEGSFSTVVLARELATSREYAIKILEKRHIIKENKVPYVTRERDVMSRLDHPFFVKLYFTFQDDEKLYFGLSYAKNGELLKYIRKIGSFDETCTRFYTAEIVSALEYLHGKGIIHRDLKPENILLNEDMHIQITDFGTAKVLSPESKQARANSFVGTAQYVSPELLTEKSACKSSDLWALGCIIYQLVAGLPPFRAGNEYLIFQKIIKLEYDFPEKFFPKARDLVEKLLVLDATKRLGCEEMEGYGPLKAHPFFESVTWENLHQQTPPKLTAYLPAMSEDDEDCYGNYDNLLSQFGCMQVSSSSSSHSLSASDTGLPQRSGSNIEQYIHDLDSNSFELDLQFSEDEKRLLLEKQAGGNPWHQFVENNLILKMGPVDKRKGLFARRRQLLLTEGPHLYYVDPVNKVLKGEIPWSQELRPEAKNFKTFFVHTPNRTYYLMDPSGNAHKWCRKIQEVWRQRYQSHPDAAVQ

Row | SMILES | IC50 [nM]
1 | O=C(NCC#Cc1ccc2nccc(OCC3CCOC3)c2c1)c1cccn(C(CO)c2ccc(F)c(F)c2)c1=O (stereo not drawn) [I-125.4] | 12
2 | O=C(NCC#Cc1ccc2nccc(OCC3CCOCC3)c2c1)c1cncn(Cc2ccc(F)c(F)c2)c1=O [I-125.6] | 26
3 | CC(N)CCOc1ccnc2ccc(C#CCNC(=O)c3cccn(Cc4ccc(F)c(F)c4)c3=O)cc12 (stereo not drawn) [I-125.7] | 32
4 | O=C(NCC#Cc1ccc2nccc(OCC3CCCOC3)c2c1)c1cccn(Cc2ccc(F)c(F)c2)c1=O (stereo not drawn) [I-125.8] | 46
5 | CN1CC[C@H](COc2ccnc3ccc(C#CCNC(=O)c4cccn(Cc5cc(F)c(F)c(F)c5)c4=O)cc23)C1 [I-125.9] | 2
6 | CC(c1ccc(F)c(F)c1)n1cccc(C(=O)NCC#Cc2ccc3nccc(OC[C@H]4CCN(C)C4)c3c2)c1=O (stereo partly drawn) [I-125.10] | 3
7 | CC(c1cc(F)c(F)c(F)c1)n1cccc(C(=O)NCC#Cc2ccc3nccc(OC[C@H]4CCN(C)C4)c3c2)c1=O (stereo partly drawn) [I-125.11] | 4
8 | CN1CC[C@@H](COc2ccnc3ccc(C#CCNC(=O)c4cccn(Cc5cc(F)c(F)c(F)c5)c4=O)cc23)C1 [I-125.12] | 6
9 | CCN(CC)CCCOc1ccnc2ccc(C#CCNC(=O)c3cncn(Cc4ccc(F)c(F)c4)c3=O)cc12 [I-125.13] | 6
10 | CC(C)(C)COc1ccnc2ccc(C#CCNC(=O)c3cccn(C(CO)c4ccc(F)c(F)c4)c3=O)cc12 (stereo not drawn) [I-125.14] | 60
11 | CCOc1ccnc2ccc(C#CCNC(=O)c3cccn(C(CO)c4ccc(F)c(F)c4)c3=O)cc12 (stereo not drawn) [I-125.15] | 11
12 | O=C(NCC#Cc1ccc2nccc(OCC3CCOCC3)c2c1)c1cccn(C(CO)c2ccc(F)c(F)c2)c1=O (stereo not drawn) [I-125.16] | 11
13 | CN1CCC[C@@H](COc2ccnc3ccc(C#CCNC(=O)c4cccn(Cc5cc(F)c(F)c(F)c5)c4=O)cc23)C1 [I-125.17] | 2
14 | CC(c1cc(F)c(F)c(F)c1)n1cccc(C(=O)NCC#Cc2ccc3nccc(OC[C@@H]4CCCN(C)C4)c3c2)c1=O (stereo partly drawn) [I-125.18] | 2
15 | O=C(NCC#Cc1ccc2nccc(OC[C@@H]3CCCN(CCN4CCOCC4)C3)c2c1)c1cccn(Cc2cc(F)c(F)c(F)c2)c1=O [I-125.19] | 3
16 | C[C@@H](c1cc(F)c(F)c(F)c1)n1cccc(C(=O)NCC#Cc2ccc3nccc(OC[C@@H]4CCCN(CCN5CCOCC5)C4)c3c2)c1=O [I-125.20] | 17
17 | CN1CCC[C@@H](COc2ccnc3ccc(C#CCNC(=O)c4cccn(C(CO)c5cc(F)c(F)c(F)c5)c4=O)cc23)C1 (stereo partly drawn) [I-125.21] | 2
18 | CC(C)N1CCC[C@@H](COc2ccnc3ccc(C#CCNC(=O)c4cccn(Cc5ccc(F)c(F)c5)c4=O)cc23)C1 [I-125.22] | 3

Row | SMILES | IC50 [nM]
19 | O=C(NCC#Cc1ccc2nccc(OC[C@@H]3CCCNC3)c2c1)c1cccn(Cc2ccc(F)c(F)c2)c1=O [I-125.23] | 4
20 | CN(C)CCCOc1ccnc2ccc(C#CCNC(=O)c3cccn(C(CO)c4ccc(F)c(F)c4)c3=O)cc12 (stereo not drawn) [I-125] | 2
21 | CCNc1c([N+](=O)[O-])cnc2ccc(C#CCNC(=O)c3cncn(Cc4ccc(F)c(F)c4)c3=O)cc12 [I-126] | 86
22 | CNc1c([N+](=O)[O-])cnc2ccc(C#CCNC(=O)c3cncn(Cc4ccc(F)c(F)c4)c3=O)cc12 [I-127] | 98
23 | CC(C)Nc1c([N+](=O)[O-])cnc2ccc(C#CCNC(=O)c3cncn(Cc4ccc(F)c(F)c4)c3=O)cc12 [I-128] | 116
24 | CNc1ncnc2ccc(C#CCNC(=O)c3cccn(Cc4ccsc4)c3=O)cc12 [II-26] | 199
25 | O=C(NCC#Cc1ccc2ncnc(N3CCCC3)c2c1)c1cccn(Cc2ccc(F)c(F)c2)c1=O [II-27] | 52
26 | CNCCCN(C)c1ncnc2ccc(C#CCNC(=O)c3cccn(Cc4ccc(F)c(F)c4)c3=O)cc12 [II-28] | 110
27 | CN1CCCN(c2ncnc3ccc(C#CCNC(=O)c4cccn(Cc5ccc(F)c(F)c5)c4=O)cc23)CC1 [II-29] | 156
28 | O=C(NCC#Cc1ccc2ncnc(N3CC[C@H](O)C3)c2c1)c1cccn(Cc2ccc(F)c(F)c2)c1=O [II-31] | 114
29 | CC(C)(CO)CNc1ncnc2ccc(C#CCNC(=O)c3cccn(Cc4ccc(F)c(F)c4)c3=O)cc12 [II-32] | 124
30 | NC(=O)CCNc1ncnc2ccc(C#CCNC(=O)c3cccn(Cc4ccc(F)c(F)c4)c3=O)cc12 [II-33] | 79
31 | CN(CCCO)c1ncnc2ccc(C#CCNC(=O)c3cccn(Cc4ccc(F)c(F)c4)c3=O)cc12 [II-34] | 59
32 | NC(=O)CNc1ncnc2ccc(C#CCNC(=O)c3cccn(Cc4ccc(F)c(F)c4)c3=O)cc12 [II-35] | 59
33 | CC1(CNc2ncnc3ccc(C#CCNC(=O)c4cccn(Cc5ccc(F)c(F)c5)c4=O)cc23)COC1 [II-36] | 468
34 | O=C(NCC#Cc1ccc2ncnc(NCC(O)CO)c2c1)c1cccn(Cc2ccc(F)c(F)c2)c1=O (stereo not drawn) [II-37] | 44
35 | CN1CCC(CNc2ncnc3ccc(C#CCNC(=O)c4cccn(Cc5ccc(F)c(F)c5)c4=O)cc23)C1 (stereo not drawn) [II-38] | 97

Second part, the compound after the results:

Row | IC50 [nM] | SMILES
36 | 12 | CNc1ncnc2ccc(C#CCNC(=O)c3cncn(Cc4ccc(F)c(F)c4)c3=O)cc12 [II-1]
37 | 171 | CN1CC(Nc2ncnc3ccc(C#CCNC(=O)c4cncn(Cc5ccc(F)c(F)c5)c4=O)cc23)C1 [II-2]
38 | 134 | CN(CCc1ccccc1)c1ncnc2ccc(C#CCNC(=O)c3cncn(Cc4ccc(F)c(F)c4)c3=O)cc12 [II-3]
39 | 26 | CN(C)c1ncnc2ccc(C#CCNC(=O)c3cncn(Cc4ccc(F)c(F)c4)c3=O)cc12 [II-4]
40 | 16 | CN(Cc1ccccc1)c1ncnc2ccc(C#CCNC(=O)c3cncn(Cc4ccc(F)c(F)c4)c3=O)cc12 [II-5]
41 | 98 | O=C(NCC#Cc1ccc2ncnc(NCCc3ccco3)c2c1)c1cncn(Cc2ccc(F)c(F)c2)c1=O [II-6]
42 | 105 | O=C(NCC#Cc1ccc2ncnc(NCCc3ccccn3)c2c1)c1cncn(Cc2ccc(F)c(F)c2)c1=O [II-7]
43 | 91 | COc1ccc(CCNc2ncnc3ccc(C#CCNC(=O)c4cncn(Cc5ccc(F)c(F)c5)c4=O)cc23)cc1OC [II-8]
44 | 443 | O=C(NCC#Cc1ccc2ncnc(N3CCNCC3)c2c1)c1cncn(Cc2ccc(F)c(F)c2)c1=O [II-9]
45 | 229 | CN(C)CCNc1ncnc2ccc(C#CCNC(=O)c3cncn(Cc4ccc(F)c(F)c4)c3=O)cc12 [II-10]
46 | 135 | O=C(NCC#Cc1ccc2ncnc(NCCCn3ccnc3)c2c1)c1cncn(Cc2ccc(F)c(F)c2)c1=O [II-11]
47 | 161 | O=C(NCC#Cc1ccc2ncnc(NCCc3cccs3)c2c1)c1cncn(Cc2ccc(F)c(F)c2)c1=O [II-12]
48 | 184 | O=C(NCC#Cc1ccc2ncnc(NCC(O)c3ccccc3)c2c1)c1cncn(Cc2ccc(F)c(F)c2)c1=O (stereo not drawn) [II-13]
49 | 158 | COCCCNc1ncnc2ccc(C#CCNC(=O)c3cncn(Cc4ccc(F)c(F)c4)c3=O)cc12 [II-14]
50 | 445 | CC(CNc1ncnc2ccc(C#CCNC(=O)c3cncn(Cc4ccc(F)c(F)c4)c3=O)cc12)c1ccccc1 (stereo not drawn) [II-15]
51 | 218 | O=C(CNc1ncnc2ccc(C#CCNC(=O)c3cncn(Cc4ccc(F)c(F)c4)c3=O)cc12)c1ccccc1 [II-16]
52 | 488 | NC(=O)[C@@H](Cc1ccccc1)Nc1ncnc2ccc(C#CCNC(=O)c3cncn(Cc4ccc(F)c(F)c4)c3=O)cc12 [II-17]
53 | 41 | COc1ccc(CCNc2ncnc3ccc(C#CCNC(=O)c4cncn(Cc5ccc(F)c(F)c5)c4=O)cc23)cc1 [II-18]
54 | 500 | CN(c1ncnc2ccc(C#CCNC(=O)c3cncn(Cc4ccc(F)c(F)c4)c3=O)cc12)C(C)(C)C [II-19]
55 | 13 | CN(c1ncnc2ccc(C#CCNC(=O)c3cncn(Cc4ccc(F)c(F)c4)c3=O)cc12)C1CC1 [II-20]
56 | 515 | O=C(NCC#Cc1ccc2ncnc(NC3CCOCC3)c2c1)c1cncn(Cc2ccc(F)c(F)c2)c1=O [II-21]
57 | 371 | CN(c1ncnc2ccc(C#CCNC(=O)c3cncn(Cc4ccc(F)c(F)c4)c3=O)cc12)C1CCCCC1 [II-22]
58 | 142 | O=C(NCC#Cc1ccc2ncnc(NC3CCN(Cc4ccccc4)CC3)c2c1)c1cncn(Cc2ccc(F)c(F)c2)c1=O [II-23]
59 | 77 | O=C(NCC#Cc1ccc2ncnc(NC3CCN(CCO)CC3)c2c1)c1cncn(Cc2ccc(F)c(F)c2)c1=O [II-24]
60 | 126 | CC1CN(C)CCC1Nc1ncnc2ccc(C#CCNC(=O)c3cncn(Cc4ccc(F)c(F)c4)c3=O)cc12 (stereo not drawn) [II-25]
61 | 21 | CC(=O)N[C@@H]1CCN(c2ncnc3ccc(C#CCNC(=O)c4cccn(Cc5ccc(F)c(F)c5)c4=O)cc23)C1 [II-30]
62 | 137 | CN1CCCC1CCNc1ncnc2ccc(C#CCNC(=O)c3cccn(Cc4ccc(F)c(F)c4)c3=O)cc12 (stereo not drawn) [II-39]
63 | 74 | CN(C)C1CCN(c2ncnc3ccc(C#CCNC(=O)c4cccn(Cc5ccc(F)c(F)c5)c4=O)cc23)CC1 [II-40]
